From EP0013067A1, “Bicyclic beta-lactam antibacterial agents, their use in pharmaceutical compositions, processes for their preparation and intermediates for use in such processes” (BEECHAM GROUP PLC, priority 1978, dated 1980)
Converted amounts (≈) assume the structure as drawn.

Legend:
Type in all cases: cell-based
Bacillus subtilis A = assay: MIC, DST agar + 10% horse blood; details: Bacillus subtilis A; DST agar + 10% horse blood; inoculum 0.001 ml of an undilute overnight broth culture; unit inferred; read-out: MIC Agar
Source text: (§1) The ninimum inhibitory concentrations (MIC) cf this compound required to inhibit the growth of various bacteria are tabulated balow: […]

Citrobacter freundii E8 [1] = assay: MIC, DST agar + 10% horse blood; details: Citrobacter freundii, E8, read-out: MIC Agar
Source text: as §1

E. coli ESS [2] = assay: MIC, DST agar + 10% horse blood; details: Escherichia coli, inoculum 0.001 ml of an undilute overnight broth culture, unit inferred
Source text: as §1

Enterobacter cloacae N1 [3] = assay: MIC, DST agar + 10% horse blood; details: Enterobacter cloacae N1; DST agar + 10% horse blood; inoculum 0.001 ml of an undilute overnight broth culture; unit inferred; read-out: MIC Agar
Source text: as §1

Escherichia coli 0111 [4] = assay: MIC, DST agar + 10% horse blood; details: Escherichia coli, 0111, inoculum 0.001 ml of an undilute overnight broth culture, unit inferred
Source text: as §1

Escherichia coli JT 39 [5] = assay: MIC, DST agar + 10% horse blood; details: JT39; Escherichia coli JT 39; DST agar + 10% horse blood; inoculum 0.001 ml of an undilute overnight broth culture; unit inferred; read-out: MIC Agar
Source text: as §1

Klebsiella aerogenes A [6] = assay: MIC, DST agar + 10% horse blood; details: Klebsiella aerogenes A; DST agar + 10% horse blood; inoculum 0.001 ml of an undilute overnight broth culture; unit inferred; read-out: MIC Agar
Source text: as §1

Proteus mirabilis C977 [7] = assay: MIC, DST agar + 10% horse blood; details: Proteus mirabilis C977; DST agar + 10% horse blood; inoculum 0.001 ml of an undilute overnight broth culture; unit inferred; read-out: MIC Agar
Source text: as §1

Proteus morganii I580 [8] = assay: MIC, DST agar + 10% horse blood; details: Morganella morganii; Proteus morganii I580; DST agar + 10% horse blood; inoculum 0.001 ml of an undilute overnight broth culture; unit inferred; read-out: MIC Agar
Source text: as §1

Proteus rettgeri WM16 = assay: MIC, DST agar + 10% horse blood; details: Providencia rettgeri; Proteus rettgeri WM16; DST agar + 10% horse blood; inoculum 0.001 ml of an undilute overnight broth culture; unit inferred; read-out: MIC Agar
Source text: as §1

Proteus vulgaris W091 = assay: MIC, DST agar + 10% horse blood; details: W091; Proteus vulgaris WO91; DST agar + 10% horse blood; inoculum 0.001 ml of an undilute overnight broth culture; unit inferred; read-out: MIC Agar
Source text: as §1

Pseudomonas aeruginosa A [9] = assay: MIC, DST agar + 10% horse blood; details: Pseudomonas aeruginosa, read-out: MIC Agar
Source text: as §1

[10] = tested on: Salmonella typhimurium CT10; assay: MIC, DST agar + 10% horse blood; details: Salmonella enterica, TYPHIMURIUM, read-out: MIC Agar
Source text: as §1

Serratia marcescens US20 [11] = assay: MIC, DST agar + 10% horse blood; details: Serratia marcescens US20; DST agar + 10% horse blood; inoculum 0.001 ml of an undilute overnight broth culture; unit inferred; read-out: MIC Agar
Source text: as §1

Shigella sonnei MB 11967 [12] = assay: MIC, DST agar + 10% horse blood; details: MB11967, inoculum 0.001 ml of an undilute overnight broth culture, unit inferred
Source text: as §1

[13] = tested on: Staphylococcus aureus 1517; assay: MIC, DST agar + 10% horse blood; details: Staphylococcus aureus 1517; DST agar + 10% horse blood; inoculum 0.001 ml of an undilute overnight broth culture; unit inferred; read-out: MIC Agar
Source text: as §1

[14] = tested on: Staphylococcus aureus Oxford; assay: MIC, DST agar + 10% horse blood; details: Staphylococcus aureus Oxford; DST agar + 10% horse blood; inoculum 0.001 ml of an undilute overnight broth culture; unit inferred; read-out: MIC Agar
Source text: as §1

[15] = tested on: Staphylococcus aureus Russell; assay: MIC, DST agar + 10% horse blood; details: Staphylococcus aureus Russell; DST agar + 10% horse blood; inoculum 0.001 ml of an undilute overnight broth culture; unit inferred; read-out: MIC Agar
Source text: as §1

Streptococcus faecalis I [16] = assay: MIC, DST agar + 10% horse blood; details: Enterococcus faecalis; Streptococcus faecalis I; DST agar + 10% horse blood; inoculum 0.001 ml of an undilute overnight broth culture; unit inferred; read-out: MIC Agar
Source text: as §1

[17] = tested on: Streptococcus pneumoniae CN33; assay: MIC, DST agar + 10% horse blood; details: Streptococcus pneumoniae CN33; DST agar + 10% horse blood; inoculum 0.001 ml of an undilute overnight broth culture; unit inferred; read-out: MIC Agar
Source text: as §1

[18] = tested on: Streptococcus pyogenes CN10; assay: MIC, DST agar + 10% horse blood; details: Streptococcus pyogenes CN10; DST agar + 10% horse blood; inoculum 0.001 ml of an undilute overnight broth culture; unit inferred; read-out: MIC Agar
Source text: as §1

Citrobacter freundii E8 [19] = assay: MIC, microtitre using Nutrient broth; details: inoculum 0.001 ml of an undilute overnight broth culture, unit inferred
Source text: as §1

E. coli ESS [20] = assay: MIC, microtitre using Nutrient broth; details: Escherichia coli, inoculum 0.001 ml of an undilute overnight broth culture, unit inferred
Source text: as §1

Enterobacter cloacae N1 [21] = assay: MIC, microtitre using Nutrient broth; details: Microtitre using Nutrient broth, inoculum 0.001 ml of an undilute overnight broth culture, unit inferred
Source text: as §1

Escherichia coli 0111 [22] = assay: MIC, microtitre using Nutrient broth; details: Microtitre using Nutrient broth, inoculum 0.001 ml of an undilute overnight broth culture, unit inferred
Source text: as §1

Escherichia coli JT 39 [23] = assay: MIC, microtitre using Nutrient broth; details: JT39; Escherichia coli JT 39; Microtitre using Nutrient broth; inoculum 0.001 ml of an undilute overnight broth culture; unit inferred; read-out: MIC Broth
Source text: as §1

Klebsiella aerogenes A [24] = assay: MIC, microtitre using Nutrient broth; details: Klebsiella aerogenes A; Microtitre using Nutrient broth; inoculum 0.001 ml of an undilute overnight broth culture; unit inferred; read-out: MIC Broth
Source text: as §1

Proteus mirabilis C977 [25] = assay: MIC, microtitre using Nutrient broth; details: Proteus mirabilis C977; Microtitre using Nutrient broth; inoculum 0.001 ml of an undilute overnight broth culture; unit inferred; read-out: MIC Broth
Source text: as §1

Proteus morganii I580 [26] = assay: MIC, microtitre using Nutrient broth; details: Morganella morganii, inoculum 0.001 ml of an undilute overnight broth culture, unit inferred
Source text: as §1

Pseudomonas aeruginosa A [27] = assay: MIC, microtitre using Nutrient broth; details: Pseudomonas aeruginosa; Pseudomanas aeruginosa A; Microtitre using Nutrient broth; inoculum 0.001 ml of an undilute overnight broth culture; unit inferred; read-out: MIC Broth
Source text: as §1

Serratia marcescens US20 [28] = assay: MIC, microtitre using Nutrient broth; details: inoculum 0.001 ml of an undilute overnight broth culture, unit inferred
Source text: as §1

Shigella sonnei MB 11967 [29] = assay: MIC, microtitre using Nutrient broth; details: MB11967, inoculum 0.001 ml of an undilute overnight broth culture, unit inferred
Source text: as §1

[30] = tested on: Staphylococcus aureus Oxford; assay: MIC, microtitre using Nutrient broth; details: Staphylococcus aureus Oxford; Microtitre using Nutrient broth; inoculum 0.001 ml of an undilute overnight broth culture; unit inferred; read-out: MIC Broth
Source text: as §1

[31] = tested on: Staphylococcus aureus Russell; assay: MIC, microtitre using Nutrient broth; details: Staphylococcus aureus Russell; Microtitre using Nutrient broth; inoculum 0.001 ml of an undilute overnight broth culture; unit inferred; read-out: MIC Broth
Source text: as §1

Streptococcus faecalis I [32] = assay: MIC, microtitre using Nutrient broth; details: Enterococcus faecalis, inoculum 0.001 ml of an undilute overnight broth culture, unit inferred
Source text: as §1

[33] = tested on: Streptococcus pyogenes CN10; assay: MIC, microtitre using Nutrient broth; details: inoculum 0.001 ml of an undilute overnight broth culture, unit inferred
Source text: as §1

Question: Which results are given for `NCC1=C(C(=O)O)N2C(=O)C[C@H]2S1` [compound 37, 2-Aminomethylpenem-3-carboxylic acid]?
Answer: MIC (Bacillus subtilis A): 2.5 µg/mL; MIC (Citrobacter freundii E8 [1]): 12.5 µg/mL; MIC (E. coli ESS [2]): 5 µg/mL; MIC (Enterobacter cloacae N1 [3]): 50 µg/mL; MIC (Escherichia coli 0111 [4]): 25 µg/mL; MIC (Escherichia coli JT 39 [5]): 50 µg/mL; MIC (Klebsiella aerogenes A [6]): 50 µg/mL; MIC (Proteus mirabilis C977 [7]): 25 µg/mL; MIC (Proteus morganii I580 [8]): > 50 µg/mL; MIC (Proteus rettgeri WM16): > 50 µg/mL; MIC (Proteus vulgaris W091): > 50 µg/mL; MIC (Pseudomonas aeruginosa A [9]): 12.5 µg/mL; MIC [10]: 12.5 µg/mL; MIC (Serratia marcescens US20 [11]): 25 µg/mL; MIC (Shigella sonnei MB 11967 [12]): 12.5 µg/mL; MIC [13]: > 50 µg/mL; MIC [14]: 5 µg/mL; MIC [15]: 5 µg/mL; MIC (Streptococcus faecalis I [16]): > 50 µg/mL; MIC [17]: 0.5 µg/mL; MIC [18]: 1.25 µg/mL; MIC (Citrobacter freundii E8 [19]): 0.5 µg/mL (≈ 2.5 µM); MIC (E. coli ESS [20]): 4 µg/mL (≈ 20 µM); MIC (Enterobacter cloacae N1 [21]): 16 µg/mL (≈ 79.9 µM); MIC (Escherichia coli 0111 [22]): 8 µg/mL (≈ 40 µM); MIC (Escherichia coli JT 39 [23]): 16 µg/mL (≈ 79.9 µM); MIC (Klebsiella aerogenes A [24]): 8 µg/mL (≈ 40 µM); MIC (Proteus mirabilis C977 [25]): 8 µg/mL (≈ 40 µM); MIC (Proteus morganii I580 [26]): 16 µg/mL (≈ 79.9 µM); MIC (Pseudomonas aeruginosa A [27]): 1 µg/mL (≈ 4.99 µM); MIC (Serratia marcescens US20 [28]): 16 µg/mL (≈ 79.9 µM); MIC (Shigella sonnei MB 11967 [29]): 4 µg/mL (≈ 20 µM); MIC [30]: 2 µg/mL (≈ 9.99 µM); MIC [31]: 4 µg/mL (≈ 20 µM); MIC (Streptococcus faecalis I [32]): 62 µg/mL (≈ 310 µM); MIC [33]: 1 µg/mL (≈ 4.99 µM)
